# PubChem BioAssay (NCI)
# Structures can show the parent of a compound that is named as a salt.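 Each compound was tested at five concentrations against cells in 96-well plates for 48 hours. TGI: total growth inhibition.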 *1 amine or outer side, *2 acyl side, *3 side chain or, on linkers, in order; H or OH if unused. Where a SMILES comes first, the peptide text is derived from it. [ ]: non-standard residue; d: D form. The star is where a group is joined. X31 = CC(=O)N(C)SCC(N[*:1])C(=O)[*:2]; X47 = CC(=O)N(C)SCC(N*)/C(O)=N\O; Cbz = O=C(OCc1ccccc1)*; Tfa = O=C(C(F)(F)F)*; Bn = c1ccc(C*)cc1; For = O=C*
# How the values were obtained:
# Test in all cases: DTP human tumour cell line panel, 48 h
# HCT-15 colon = system: HCT-15 colon
# SF-268 CNS = system: SF-268 CNS
# IGROV1 ovarian = system: IGROV1 ovarian
# OVCAR-3 ovarian = system: OVCAR-3 ovarian
# TK-10 renal = system: TK-10 renal
# OVCAR-5 ovarian = system: OVCAR-5 ovarian
# DU-145 prostate = system: DU-145 prostate
# K-562 leukemia = system: K-562 leukemia
# NCI-H460 lung = system: NCI-H460 lung
Compound,TGI (HCT-15 colon) [µM],TGI (SF-268 CNS) [µM],TGI (IGROV1 ovarian) [µM],TGI (OVCAR-3 ovarian) [µM],TGI (TK-10 renal) [µM],TGI (OVCAR-5 ovarian) [µM],TGI (DU-145 prostate) [µM],TGI (K-562 leukemia) [µM],TGI (NCI-H460 lung) [µM]
CCCCCCCC1C(C)c2c([nH]c3ccccc23)C2C(=O)N(c3ccc(OC)cc3)C(=O)C21 (centres undefined),> 10,> 10,> 10,6.71,5.37,> 10,> 10,> 6.39,3.62
NC(Cc1ccc(S(=O)(=O)O)cc1)C(=O)NC(CCCCNC(=O)NCCCCC(NC(=O)C(N)Cc1ccc(S(=O)(=O)O)cc1)C(=O)NC(Cc1ccc(S(=O)(=O)O)cc1)C(=O)O)C(=O)NC(Cc1ccc(S(=O)(=O)O)cc1)C(=O)O (centres undefined),> 100,> 100,> 100,> 100,> 100,> 100,> 100,> 100,> 100
CC(=O)OC1=c2ccccc2=C(O)C2C1C=NN2C(C)=O (centres undefined),> 100,> 100,> 100,> 100,> 100,> 100,> 100,> 100,> 100
NCCSc1nc2ccccc2s1,> 100,86,> 100,> 100,66.3,> 100,> 100,> 100,> 100
Cc1cc(N(CCC#N)CCC#N)ccc1/C(N=Nc1ccc(Cl)cc1)=N\NC(=O)c1cc(Cl)ccc1O,> 100,86.2,> 100,66.2,> 100,> 100,> 100,> 100,> 100
O=P1(C(O)/C=C/c2ccccc2)N(Cc2ccccc2)[C@H](c2ccccc2)[C@@H](c2ccccc2)N1Cc1ccccc1 (some centres undefined),> 85.3,> 100,> 44.6,> 93.1,> 100,> 100,> 100,> 80.6,> 79.1
C=CCN1CCC(OC(=O)C(O)(C#CC)C2CCCC2)CC1 (centres undefined),> 100,> 100,> 100,> 100,> 100,> 100,> 100,> 100,> 100
CC(=O)N(C)SCC(NC(=O)C(Cc1ccccc1)NC(=O)OCc1ccccc1)C(=O)NC(Cc1ccccc1)C(=O)NC(Cc1cn(C=O)c2ccccc12)C(=O)NC(CCCCNC(=O)OCc1ccccc1)C(=O)NC(C(=O)NC(CSN(C)C(C)=O)/C(O)=N\O)C(C)OCc1ccccc1 (centres undefined) (Cbz-F[X31]FW(For)K(Cbz)T(Bn)-X47; configuration not given here),> 100,> 100,> 100,> 100,> 100,> 100,> 100,> 100,> 100
CC1(C)CC(=O)C(CCC(=O)/C=C/c2ccccc2)C(=O)C1,> 100,> 100,> 100,> 100,> 100,> 100,> 100,> 100,> 100
COc1ccc(/C=C2\CCC(C)C3=C(c4ccc(OC)c(OC)c4)C(C#N)=C(N)OC32)cc1OC (centres undefined),38,> 100,9.45,48.3,> 100,23.6,> 100,> 100,11.1
C=CCn1c(=O)c2ccccc2[n+]2c(C)c(C(=O)OCC)sc12,> 100,> 100,> 100,> 100,> 100,> 100,> 100,> 100,> 100
O=C(O)CC(NC(=O)C(F)(F)F)C(=O)NC(Cc1ccc(O)cc1)C(=O)O (stereo not drawn) (Tfa-Asp-Tyr-OH; configuration not given here),> 50,> 50,> 50,> 50,> 50,> 50,> 50,> 50,> 50
CCOC(=O)CN1C(=O)c2c(c(C)n(-c3ccccc3)c2C)C1=O,> 100,> 100,> 100,> 100,> 100,> 100,> 100,> 100,> 100
CC1CC(C)C(O)C(C2CC(CC(=O)NC3CCCCC3)CC(=O)O2)C1 (centres undefined),> 100,> 100,> 100,> 100,> 100,> 100,> 100,> 100,> 100
CC1=NCCN=C(C)C1N=Nc1ccc2nc(C)[nH]c2c1,> 100,46.4,70.7,44.3,42.9,39.9,30.9,20.1,52.1
CO/N=C(\C)c1ccc(Nc2c3ccccc3nc3occc23)cc1,13.1,18.6,12.4,2.85,18.4,32.2,10.3,37.3,9.05
